Assay results from US8268877B2, “Microbiocides” (Syngenta Crop Protection, LLC, priority 2009, dated 2012).

Key:
[1] = system: Puccinia recondita; experiment: Action against Puccinia recondita/wheat/leaf disc curative (brown rust); assay type: in vivo; conditions: wheat leaf segments, 200 ppm active ingredient, applied one day after inoculation, assessed 8 dpi
Description: Wheat leaf segments are placed on agar in multiwell plates (24-well format). The leaf disks are then inoculated with a spore suspension of the fungus. One day after inoculation the test solution is applied (200 ppm active ingredient).

[2] = system: Phaeosphaeria nodorum (Septoria nodorum); experiment: Action against Phaeosphaeria nodorum/wheat/leaf disc preventative (glume blotch); assay type: in vivo; conditions: wheat leaf segments, 60 ppm active ingredient, sprayed before inoculation, assessed 4 dpi
Description: (§1) Wheat leaf segments are placed on agar in a multiwell plate (24-well format) and sprayed with test solutions (60 ppm active ingredient). After drying, the leaf disks are inoculated with a spore suspension of the fungus. After appropriate incubation the activity of a compound is assessed 4 dpi (days after inoculation) as preventive fungicidal activity.

[3] = system: Monographella nivalis (Microdochium nivale); experiment: Action against Monographella nivalis/liquid culture (foot rot cereals); assay type: cell-based; conditions: liquid culture (PDB), 200 ppm active ingredient, 24° C., photometrically after 4-6 days
Description: Conidia of the fungus from cryogenic storage are directly mixed into nutrient broth (PDB potato dextrose broth). After placing a (DMSO) solution of the test compounds (200 ppm active ingredient) into a microtiter plate (96-well format) the nutrient broth containing the fungal spores is added. The test plates are incubated at 24° C. and the inhibition of growth is measured photometrically after 4-6 days.

[4] = system: Fusarium culmorum; experiment: whole plant or invertebrate; assay type: in vivo; conditions: in Triticum aestivum, read-out: inhibition (preventative fungicidal activity)
[5] = system: Fusarium graminearum, Syn. Gibberella zeae; experiment: whole plant or invertebrate; assay type: in vivo; conditions: in Triticum aestivum, read-out: inhibition (preventative fungicidal activity)
[6] = system: Pyrenophora teres; experiment: Action against Pyrenophora teres (net blotch), barley leaf segments, preventive; assay type: in vivo; conditions: foliar, 60 ppm active ingredient, sprayed before inoculation, assessed 4 dpi, read-out: inhibition (preventive fungicidal activity)
Description: as §1, with “Barley” for “Wheat”, “in” for “in a”, “plates” for “plate”

| SMILES | inhibition (preventive fungicidal activity) [2] | inhibition of growth [3] | also measured |
| --- | --- | --- | --- |
| CON(C(=O)c1cn(C)nc1C(F)F)C(C)Cc1sc2ccc(Br)cc2c1Cl (centres unmarked) [Compound 1.006] | 80% | 80% | inhibition (curative fungicidal activity) [1]: 80% |
| CON(C(=O)c1c(C)nn(C)c1F)C(C)Cc1sc2cc(Cl)ccc2c1Cl (centres unmarked) [Compound 3.002] | 80% |  |  |
| CON(C(=O)c1cn(C)nc1C(F)(F)F)C(C)Cc1sc2cc(Cl)ccc2c1Cl (centres unmarked) [Compound 2.002] | 80% | 80% |  |
| COC(c1sc2ccc(Br)cc2c1Cl)C(C)N(OC)C(=O)c1cn(C)nc1C(F)F (centres unmarked) [Compound 1.016] |  | 80% |  |
| CON(C(=O)c1cn(C)nc1C(F)F)C(C)Cc1sc2cc(Cl)ccc2c1Cl (centres unmarked) [Compound 1.002] | 80% | 80% |  |
| CON(C(=O)c1cn(C)nc1C(F)F)C(C)Cc1sc2ccc(Cl)cc2c1Cl (centres unmarked) [Compound 1.001, 3-Difluoromethyl-1-methyl-1H-pyrazole-4-carboxylic acid [2-(3,5-dichlorobenzo[b]thiophen-2-yl)-1-methyl-ethyl]methoxyamide] |  |  | inhibition at 60 ppm [4]: ≥ 80%; inhibition at 60 ppm [5]: ≥ 80%; inhibition at 60 ppm [6]: ≥ 80%; melting point: 129 to 131 °C |
| COC(c1sc2cc(Cl)ccc2c1Cl)C(C)N(OC)C(=O)c1cn(C)nc1C(F)(F)F (centres unmarked) [Compound 2.015] |  | 80% |  |
| CC(Cc1sc2ccc(Cl)cc2c1Cl)N(O)C(=O)c1cn(C)nc1C(F)F (centres unmarked) [Compound 1.010] |  | 80% |  |
| COC(c1sc2cc(Cl)ccc2c1Cl)C(C)N(OC)C(=O)c1cn(C)nc1C(F)F (centres unmarked) [Compound 1.015] | 80% | 80% |  |
